Key:
wooden breast = conditions: previous state-of-the-art, poster 450 P, 2015; cited from earlier work
[1] = nitrate dosage up to at least 400 mg/kg body weight, starter and grower phases
Procedure: The amount of one or more nitrates, one or more nitrites, or a mixture thereof fed to the poultry in the feed compositions and/or methods described herein can also be expressed in mg of nitrates and/or nitrites per kg body weight of the poultry. In some embodiments, the nitrate/nitrite amount in the feed composition is less than 500 mg/kg, less than 450 mg/kg, less than 400 mg/kg, or less than 300 mg/kg. In some embodiments, the nitrate/nitrate amount in the feed composition is in the range of 10 to 500 mg/kg, 10 to 400 mg/kg; 10 to 300 mg/kg; 25 to 400 mg/kg; 25 to 200 mg/kg; 50 to 400 mg/kg; 50 to 150 mg/kg; or 100 to 400 mg/kg.

Row | SMILES | reduction of wooden breast (wooden breast) | effect on growth [1] | nitrate poisoning [1]
1 | N=C(N)NCCC[C@H](N)C(=O)O [arginine] | inefficient in providing effective reduction | – | –
2 | O=[N+]([O-])[O-].O=[N+]([O-])[O-].[Ca+2] [calcium nitrate] | – | does not negatively affect growth | does not cause nitrate poisoning
